≈ marks a conversion by molar mass, not a printed value.
How the values were obtained:
Assay type in all cases: functional
[1] = system: Shewanella putrefaciens; assay: Antimicrobial activity against Shewanella putrefaciens Sp95 harboring intI1,sul1,sul2 and beta-lactamase OXA-48 like genes by CLSI method
[2] = system: Shewanella algae; assay: Antimicrobial activity against Shewanella algae Sa2 harboring intI1, intI2 and sul1 genes by CLSI method
[3] = system: Shewanella algae; assay: Antimicrobial activity against Shewanella algae Sa74 harboring intI1, intI2, sul1 and sul2 genes by CLSI method
[4] = system: Shewanella algae; assay: Antimicrobial activity against Shewanella algae Sa82 harboring intI1, intI2, sul1 and sul2 genes by CLSI method
[5] = system: Shewanella algae; assay: Antimicrobial activity against Shewanella algae Sa10 harboring intI1, intI2, sul1 and sul2 genes by CLSI method
[6] = system: Shewanella algae; assay: Antimicrobial activity against Shewanella algae Sa392 harboring intI1, intI2, sul1 and sul2 genes by CLSI method
[7] = system: Shewanella putrefaciens; assay: Antimicrobial activity against Shewanella putrefaciens Sp31 harboring intI1 and beta-lactamase OXA-48 like genes by CLSI method
[8] = system: Shewanella algae; assay: Antimicrobial activity against Shewanella algae Sa78 harboring sul2 gene by CLSI method
[9] = system: Shewanella putrefaciens; assay: Antimicrobial activity against Shewanella putrefaciens Sp117 harboring intI1,sul1,sul2 and beta-lactamase OXA-48 like genes by CLSI method
[10] = system: Shewanella algae; assay: Antimicrobial activity against Shewanella algae Sa9 harboring intI1, intI2, sul1 and sul2 genes by CLSI method

| Compound | MIC [1] | MIC [2] | MIC [3] | MIC [4] | MIC [5] | MIC [6] | MIC [7] | MIC [8] | MIC [9] | MIC [10] |
| --- | --- | --- | --- | --- | --- | --- | --- | --- | --- | --- |
| C[C@@H](O)[C@H]1C(=O)N2C(C(=O)O)=C(S[C@@H]3CN[C@H](C(=O)N(C)C)C3)[C@H](C)[C@H]12 [MEROPENEM] | 0.25 mg/L (≈ 0.652 µM) | 0.032 mg/L (≈ 0.0834 µM) | 0.0094 mg/L (≈ 0.0245 µM) | 0.38 mg/L (≈ 0.991 µM) | 1 mg/L (≈ 2.61 µM) | 1 mg/L (≈ 2.61 µM) | 0.125 mg/L (≈ 0.326 µM) | 0.25 mg/L (≈ 0.652 µM) | 4 mg/L (≈ 10.4 µM) | 0.125 mg/L (≈ 0.326 µM) |
| C[C@@H](O)[C@H]1C(=O)N2C(C(=O)O)=C(SCCNC=N)C[C@H]12 [IMIPENEM ANHYDROUS] | 0.5 mg/L (≈ 1.67 µM) | 0.25 mg/L (≈ 0.835 µM) | 4 mg/L (≈ 13.4 µM) | 0.25 mg/L (≈ 0.835 µM) | 8 mg/L (≈ 26.7 µM) | 4 mg/L (≈ 13.4 µM) | 0.25 mg/L (≈ 0.835 µM) | 4 mg/L (≈ 13.4 µM) | 1 mg/L (≈ 3.34 µM) | 2 mg/L (≈ 6.68 µM) |

Reference: ChEMBL document CHEMBL1671739, “Reservoir of antimicrobial resistance determinants associated with horizontal gene transfer in clinical isolates of the genus Shewanella” (2010)
